Patent US9914731B2, “Pyrazolo[1,5-a]pyridine derivatives and methods of their use” (Ignyta, Inc., priority 2013, dated 2018)

Biological target: recombinant human baculovirus-expressed cMET (Homo sapiens (Human), UniProt P08581)
Test: c-MET kinase assay (HTRF KinEASE)
Format: biochemical
Details: average of two or more determinations; read-out: c-MET IC50

SMILES | IC50 [nM]
CCn1cc(C(=O)Nc2ccc(Oc3cc(-c4cn(C)cn4)cn4nccc34)c(C(F)(F)F)c2)c(=O)n(-c2ccc(F)cc2)c1=O [Example 125, 1-Ethyl-3-(4-fluoro-phenyl)-2,4-dioxo-1,2,3,4-tetrahydro-pyrimidine-5-carboxylic acid {4-[6-(1-methyl-1H-imidazol-4-yl)-pyrazolo[1,5-a]pyridin-4-yloxy]-3-trifluoromethyl-phenyl}-amide] | < 10
CC(C)n1cc(C(=O)Nc2ccc(Oc3cc(-c4cn(C)cn4)cn4nccc34)c(C(F)(F)F)c2)c(=O)n(-c2ccc(F)cc2)c1=O [Example 126, 3-(4-Fluoro-phenyl)-1-isopropyl-2,4-dioxo-1,2,3,4-tetrahydro-pyrimidine-5-carboxylic acid{4-[6-(1-methyl-1H-imidazol-4-yl)-pyrazolo[1,5-a]pyridin-4-yloxy]-3-trifluoromethyl-phenyl}-amide] | 10 to 100
CCn1nc(C(=O)Nc2ccc(Oc3cc(-c4cn(C)cn4)cn4nccc34)cn2)c(=O)n(-c2ccc(F)cc2)c1=O [Example 130, 2-Ethyl-4-(4-fluoro-phenyl)-3,5-dioxo-2,3,4,5-tetrahydro-1,2,4-triazine-6-carboxylic acid{5-[6-(1-methyl-1H-imidazol-4-yl)-pyrazolo[1,5-a]pyridin-4-yloxy]-pyridin-2-yl}-amide] | < 10
CC(C)n1nc(C(=O)Nc2ccc(Oc3cc(-c4cn(C)cn4)cn4nccc34)cn2)c(=O)n(-c2ccc(F)cc2)c1=O [Example 131, 4-(4-Fluoro-phenyl)-2-isopropyl-3,5-dioxo-2,3,4,5-tetrahydro-1,2,4-triazine-6-carboxylic acid{5-[6-(1-methyl-1H-imidazol-4-yl)-pyrazolo[1,5-a]pyridin-4-yloxy]-pyridin-2-yl}-amide] | < 10
CCn1cc(C(=O)Nc2ccc(Oc3cc(-c4ncccn4)cn4nccc34)c(F)c2)c(=O)n(-c2ccc(F)cc2)c1=O [Example 132, 1-Ethyl-3-(4-fluoro-phenyl)-2,4-dioxo-1,2,3,4-tetrahydro-pyrimidine-5-carboxylic acid [3-fluoro-4-(6-pyrimidin-2-yl-pyrazolo[1,5-a]pyridin-4-yloxy)-phenyl]-amide] | 10 to 100
CC(C)n1cc(C(=O)Nc2ccc(Oc3cc(-c4ncccn4)cn4nccc34)c(F)c2)c(=O)n(-c2ccc(F)cc2)c1=O [Example 133, 3-(4-Fluoro-phenyl)-1-isopropyl-2,4-dioxo-1,2,3,4-tetrahydro-pyrimidine-5-carboxylic acid[3-fluoro-4-(6-pyrimidin-2-yl-pyrazolo[1,5-a]pyridin-4-yloxy)-phenyl]-amide] | 10 to 100
CCn1cc(C(=O)Nc2ccc(Oc3cc(-c4cnccn4)cn4nccc34)c(F)c2)c(=O)n(-c2ccc(F)cc2)c1=O [Example 134, 1-Ethyl-3-(4-fluoro-phenyl)-2,4-dioxo-1,2,3,4-tetrahydro-pyrimidine-5-carboxylic acid[3-fluoro-4-(6-pyrazin-2-yl-pyrazolo[1,5-a]pyridin-4-yloxy)-phenyl]-amide] | 10 to 100
CC(C)n1cc(C(=O)Nc2ccc(Oc3cc(-c4cnccn4)cn4nccc34)c(F)c2)c(=O)n(-c2ccc(F)cc2)c1=O [Example 135, 3-(4-Fluoro-phenyl)-1-isopropyl-2,4-dioxo-1,2,3,4-tetrahydro-pyrimidine-5-carboxylic acid[3-fluoro-4-(6-pyrazin-2-yl-pyrazolo[1,5-a]pyridin-4-yloxy)-phenyl]-amide] | 10 to 100
CCn1cc(C(=O)Nc2ccc(Oc3cc(-c4cccc(C)n4)cn4nccc34)c(F)c2)c(=O)n(-c2ccc(F)cc2)c1=O [Example 136, 1-Ethyl-3-(4-fluoro-phenyl)-2,4-dioxo-1,2,3,4-tetrahydro-pyrimidine-5-carboxylic acid{3-fluoro-4-[6-(6-methyl-pyridin-2-yl)-pyrazolo[1,5-a]pyridin-4-yloxy]-phenyl}-amide] | 10 to 100
Cc1cccc(-c2cc(Oc3ccc(NC(=O)c4cn(C(C)C)c(=O)n(-c5ccc(F)cc5)c4=O)cc3F)c3ccnn3c2)n1 [Example 137, 3-(4-Fluoro-phenyl)-1-isopropyl-2,4-dioxo-1,2,3,4-tetrahydro-pyrimidine-5-carboxylic acid{3-fluoro-4-[6-(6-methyl-pyridin-2-yl)-pyrazolo[1,5-a]pyridin-4-yloxy]-phenyl}-amide] | 10 to 100
CC(C)n1cc(C(=O)Nc2ccc(Oc3cc(C(=O)N(C)C)cn4nccc34)c(F)c2)c(=O)n(-c2ccc(F)cc2)c1=O [Example 138, 4-(2-Fluoro-4-{[3-(4-fluoro-phenyl)-1-isopropyl-2,4-dioxo-1,2,3,4-tetrahydro-pyrimidine-5-carbonyl]-amino}-phenoxy)-pyrazolo[1,5-a]pyridine-6-carboxylic acid dimethylamide] | < 10
CCn1cc(C(=O)Nc2ccc(Oc3cc(C(=O)N(C)C)cn4nccc34)c(F)c2)c(=O)n(-c2ccc(F)cc2)c1=O [Example 139, 4-(4-{[1-Ethyl-3-(4-fluoro-phenyl)-2,4-dioxo-1,2,3,4-tetrahydro-pyrimidine-5-carbonyl]-amino}-2-fluoro-phenoxy)-pyrazolo[1,5-a]pyridine-6-carboxylic acid dimethylamide] | < 10
CCn1cc(C(=O)Nc2ccc(Oc3cc(NS(C)(=O)=O)cn4nccc34)c(F)c2)c(=O)n(-c2ccc(F)cc2)c1=O [Example 140, 1-Ethyl-3-(4-fluoro-phenyl)-2,4-dioxo-1,2,3,4-tetrahydro-pyrimidine-5-carboxylic acid[3-fluoro-4-(6-methanesulfonylamino-pyrazolo[1,5-a]pyridin-4-yloxy)-phenyl]-amide] | 10 to 100
CC(C)n1cc(C(=O)Nc2ccc(Oc3cc(NS(C)(=O)=O)cn4nccc34)c(F)c2)c(=O)n(-c2ccc(F)cc2)c1=O [Example 141, 3-(4-Fluoro-phenyl)-1-isopropyl-2,4-dioxo-1,2,3,4-tetrahydro-pyrimidine-5-carboxylic acid[3-fluoro-4-(6-methanesulfonylamino-pyrazolo[1,5-a]pyridin-4-yloxy)-phenyl]-amide] | 10 to 100
CC(=O)Nc1cc(Oc2ccc(NC(=O)c3cn(C(C)C)c(=O)n(-c4ccc(F)cc4)c3=O)cc2F)c2ccnn2c1 [Example 143, 3-(4-Fluoro-phenyl)-1-isopropyl-2,4-dioxo-1,2,3,4-tetrahydro-pyrimidine-5-carboxylic acid[4-(6-acetylamino-pyrazolo[1,5-a]pyridin-4-yloxy)-3-fluoro-phenyl]-amide] | < 10
CCn1cc(C(=O)Nc2ccc(Oc3cc(NC(=O)N(C)C)cn4nccc34)c(F)c2)c(=O)n(-c2ccc(F)cc2)c1=O [Example 146, 1-Ethyl-3-(4-fluoro-phenyl)-2,4-dioxo-1,2,3,4-tetrahydro-pyrimidine-5-carboxylic acid {4-[6-(3,3-dimethyl-urea)-pyrazolo[1,5-a]pyridin-4-yloxy]-3-fluoro-phenyl}-amide] | < 10
CC(C)n1cc(C(=O)Nc2ccc(Oc3cc(NC(=O)N4CCN(C)CC4)cn4nccc34)c(F)c2)c(=O)n(-c2ccc(F)cc2)c1=O [Example 150, 3-(4-Fluoro-phenyl)-1-isopropyl-2,4-dioxo-1,2,3,4-tetrahydro-pyrimidine-5-carboxylic acid(3-fluoro-4-{6-[(4-methyl-piperazine-1-carbonyl)-amino]-pyrazolo[1,5-a]pyridin-4-yloxy}-phenyl)-amide] | 10 to 100
